Source: US9376442B2, “Methylpyrrolopyrimidinecarboxamides” (Takeda GmbH, priority 2009, dated 2016)

Target: T1, PDE5A1 (Homo sapiens, UniProt O76074)
T1 construct: from tissue; host or cells: human platelets from fresh donor blood (10,000 x g supernatant of sonicated lysate)
Assay: Inhibition of type 5 phosphodiesterase (PDE5) activity, modified SPA test with human platelet lysate
Type: biochemical
Conditions: 0.5 μM cGMP, read-out: PDE5A1 inhibitory values [measured as −log IC50 (mol/l)] (converted)
Method in brief: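 Scintillation proximity assay with [3H]cGMP tracer at 0.5 μM total cGMP, stopped after 15 min with beads containing IBMX. PDE3 and PDE2 activities suppressed with motapizone (1 μM) and a PDE2 inhibitor (10 nM). Human platelet supernatant served as the enzyme, with compound preincubated 5 min at 37° C; IC50 values from concentration-effect curves.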

Row | IC50 [nM] | SMILES
1 | < 1 | CCc1ccc(OCC2CC2)c(-c2ncnc3c(C(=O)NC4CCN(C(=O)COC)CC4)c(C)[nH]c23)c1 [Example E147, 4-[2-(Cyclopropylmethoxy)-5-ethylphenyl]-N-[1-(methoxyacetyl)piperidin-4-yl]-6-methyl-5H-pyrrolo[3,2-d]pyrimidine-7-carboxamide]
2 | 1 to 10 | CC(=O)N[C@H]1CC[C@@H](NC(=O)c2c(C)[nH]c3c(-c4cc(F)ccc4OCC4CC4)ncnc23)CC1 [Example E45, N-(cis-4-acetamidocyclohexyl)-4-[2-(cyclopropylmethoxy)-5-fluorophenyl]-6-methyl-5H-pyrrolo[3,2-d]pyrimidine-7-carboxamide]
3 | < 1 | Cc1ccc(OCC2CC2)c(-c2ncnc3c(C(=O)N[C@H]4CC[C@@H](NC(=O)[C@H](C)O)CC4)c(C)[nH]c23)c1 [Example F56, 4-[2-(Cyclopropylmethoxy)-5-methylphenyl]-N-(cis-4-{[(2S)-2-hydroxypropanoyl]amino}cyclohexyl)-6-methyl-5H-pyrrolo[3,2-d]pyrimidine-7-carboxamide]
4 | < 1 | CCC(=O)N[C@H]1CC[C@H](NC(=O)c2c(C)[nH]c3c(-c4cc(F)c(OC)cc4OCC4CC4)ncnc23)CC1 [Example E136, 4-[2-(Cyclopropylmethoxy)-5-fluoro-4-methoxyphenyl]-6-methyl-N-[trans-4-(propionylamino)cyclohexyl]-5H-pyrrolo[3,2-d]pyrimidine-7-carboxamide]
5 | < 1 | Cc1cc(-c2ncnc3c(C(=O)N[C@@H]4CCN(C(=O)CO)C[C@H]4O)c(C)[nH]c23)c(OCC2CC2)cc1F (relative stereo) [Example F81, 4-[2-(Cyclopropylmethoxy)-4-fluoro-5-methylphenyl]-N-[(3R*,4R*)-3-hydroxy-1-(hydroxyacetyl)piperidin-4-yl]-6-methyl-5H-pyrrolo[3,2-d]pyrimidine-7-carboxamide]
6 | < 1 | CCC(=O)N1CCC(NC(=O)c2c(C)[nH]c3c(-c4cc(C(C)=O)ccc4OCC4CC4)ncnc23)CC1 [Example E164, 4-[5-Acetyl-2-(cyclopropylmethoxy)phenyl]-6-methyl-N-(1-propanoylpiperidin-4-yl)-5H-pyrrolo[3,2-d]pyrimidine-7-carboxamide]
7 | 1 to 10 | CCOc1ccc(F)cc1-c1ncnc2c(C(=O)NC3CCN(C(=O)CO)CC3)c(C)[nH]c12 [Example F32]
8 | < 1 | CCC(=O)N[C@H]1CC[C@@H](NC(=O)c2c(C)[nH]c3c(-c4cc(OC)c(F)cc4OCC4CC4)ncnc23)CC1 [Example E111, 4-[2-(Cyclopropylmethoxy)-4-fluoro-5-methoxyphenyl]-6-methyl-N-[cis-4-(propionylamino)cyclohexyl]-5H-pyrrolo[3,2-d]pyrimidine-7-carboxamide]
9 | < 1 | COc1ccc(-c2ncnc3c(C(=O)N[C@H]4CC[C@H](NC(=O)[C@H](C)O)CC4)c(C)[nH]c23)c(OCC2CC2)c1 [Example F36, 4-[2-(Cyclopropylmethoxy)-4-methoxyphenyl]-N-(trans-4-{[(2S)-2-hydroxypropanoyl]amino}cyclohexyl)-6-methyl-5H-pyrrolo[3,2-d]pyrimidine-7-carboxamide]
10 | < 1 | CCC(=O)N[C@H]1CC[C@H](NC(=O)c2c(C)[nH]c3c(-c4c(OCC5CC5)ccc5c4OCO5)ncnc23)CC1 [Example E6, 4-[5-(Cyclopropylmethoxy)-1,3-benzodioxol-4-yl]-6-methyl-N-[trans-4-(propionylamino)cyclohexyl]-5H-pyrrolo[3,2-d]pyrimidine-7-carboxamide]
11 | < 1 | CCOc1ccc(C(F)(F)F)cc1-c1ncnc2c(C(=O)NC3CCN(C(=O)[C@H](C)O)CC3)c(C)[nH]c12 [Example F64, 4-[2-Ethoxy-5-(trifluoromethyl)phenyl]-N-{1-[(2S)-2-hydroxypropanoyl]piperidin-4-yl}-6-methyl-5H-pyrrolo[3,2-d]pyrimidine-7-carboxamide]
12 | < 1 | COCC(=O)N1CCC(NC(=O)c2c(C)[nH]c3c(-c4c(OCC5CC5)ccc5c4OCO5)ncnc23)CC1 [Example E3, 4-[5-(Cyclopropylmethoxy)-1,3-benzodioxol-4-yl]-N-[1-(methoxyacetyl)piperidin-4-yl]-6-methyl-5H-pyrrolo[3,2-d]pyrimidine-7-carboxamide]
13 | < 1 | COCC(=O)N1C[C@@H](O)[C@H](NC(=O)c2c(C)[nH]c3c(-c4cc(OC)c(F)cc4OCC4CC4)ncnc23)C1 (relative stereo) [Example E185, 4-[2-(Cyclopropylmethoxy)-4-fluoro-5-methoxyphenyl]-N-[(3R*,4R*)-4-hydroxy-1-(methoxyacetyl)pyrrolidin-3-yl]-6-methyl-5H-pyrrolo[3,2-d]pyrimidine-7-carboxamide]
14 | < 1 | COc1cc(OCC2CC2)c(-c2ncnc3c(C(=O)N[C@@H]4CCN(C(C)=O)C4)c(C)[nH]c23)cc1F [Example E186, N-[(3R)-1-Acetylpyrrolidin-3-yl]-4-[2-(cyclopropylmethoxy)-5-fluoro-4-methoxyphenyl]-6-methyl-5H-pyrrolo[3,2-d]pyrimidine-7-carboxamide]
15 | < 1 | COc1cc(-c2ncnc3c(C(=O)N[C@@H]4CCN(C(C)=O)C[C@H]4O)c(C)[nH]c23)c(OCC2CC2)cc1F (relative stereo) [Example E113, N-[(3R*,4R*)-1-Acetyl-3-hydroxypiperidin-4-yl]-4-[2-(cyclopropylmethoxy)-4-fluoro-5-methoxyphenyl]-6-methyl-5H-pyrrolo[3,2-d]pyrimidine-7-carboxamide]
16 | < 1 | COc1cc(-c2ncnc3c(C(=O)N[C@@H]4CN(C(C)=O)C[C@H]4O)c(C)[nH]c23)c(OCC2CC2)cc1F (relative stereo) [Example E183, N-[(3R*,4R*)-1-Acetyl-4-hydroxypyrrolidin-3-yl]-4-[2-(cyclopropylmethoxy)-4-fluoro-5-methoxyphenyl]-6-methyl-5H-pyrrolo[3,2-d]pyrimidine-7-carboxamide]

Target: T2, PDE4B1 (Homo sapiens, UniProt Q07343)
T2 construct: made in house; host or cells: SF21 insect cells (baculovirus; pCRBac vector), 1000 x g supernatant of homogenate
T2 sequence (Q07343 whole entry): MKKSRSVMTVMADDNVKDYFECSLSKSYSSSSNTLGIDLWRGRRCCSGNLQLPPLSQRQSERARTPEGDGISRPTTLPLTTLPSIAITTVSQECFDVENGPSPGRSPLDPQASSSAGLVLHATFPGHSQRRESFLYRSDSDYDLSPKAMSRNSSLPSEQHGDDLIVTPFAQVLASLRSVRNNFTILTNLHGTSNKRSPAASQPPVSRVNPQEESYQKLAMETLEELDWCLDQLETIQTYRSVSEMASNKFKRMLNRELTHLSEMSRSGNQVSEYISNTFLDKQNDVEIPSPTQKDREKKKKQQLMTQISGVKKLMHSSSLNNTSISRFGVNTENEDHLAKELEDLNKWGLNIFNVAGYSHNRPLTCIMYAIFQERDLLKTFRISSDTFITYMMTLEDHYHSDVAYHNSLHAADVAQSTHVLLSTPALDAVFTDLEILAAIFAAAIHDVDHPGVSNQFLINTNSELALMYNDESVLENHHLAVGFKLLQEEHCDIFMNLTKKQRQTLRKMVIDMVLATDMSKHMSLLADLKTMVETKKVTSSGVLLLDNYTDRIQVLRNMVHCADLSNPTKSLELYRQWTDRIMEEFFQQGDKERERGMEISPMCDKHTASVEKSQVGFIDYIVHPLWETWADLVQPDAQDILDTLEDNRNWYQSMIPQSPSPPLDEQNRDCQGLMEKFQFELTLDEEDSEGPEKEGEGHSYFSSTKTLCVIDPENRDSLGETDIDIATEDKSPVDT
Assay: Inhibition of type 4 phosphodiesterase (PDE4) activity, modified SPA test with recombinant PDE4B1 expressed in SF21 insect cells
Type: biochemical
Conditions: recombinant PDE4B1, 0.5 μM cAMP, read-out: PDE4B1 inhibitory values [measured as −log IC50 (mol/l)] (converted)
Experimental: Method for Measuring Inhibition of the Type 4 Phosphodiesterase (PDE4) Activity:
The PDE4B1 (GB no. L20966) was a gift of Prof. M. Conti (Stanford University, USA). It was amplified from the original plasmid (pCMV5) via PCR with primers Rb18 (5′-[…]-3′) and Rb10 (5′-[…]-3′) and cloned into the pCRBac vector (Invitrogen, Groningen, NL).
The recombinant baculovirus was prepared by means of homologous recombination in SF9 insect cells. The expression plasmids were cotransfected with Baculo-Gold DNA (Pharmingen, Hamburg) using a standard protocol (Pharmingen, Hamburg). Wt virus-free recombinant virus supernatants were selected using plaque assay methods. After that, high-titre virus supernatants were prepared by amplifying 3 times. PDE4B1 was expressed in SF21 cells by infecting 2×10^6 cells/ml with an MOI (multiplicity of infection) between 1 and 10 in the serum-free medium Insect Express Sf9-S2 (PAA, Pasching, Austria). The cells were cultured at 28° C. for 48-72 hours, after which they were pelleted for 5-10 min at 1000×g and 4° C.
The SF21 insect cells were resuspended, at a concentration of approx. 10^7 cells/ml, in ice-cold (4° C.) homogenization buffer (20 mM Tris, pH 8.2, containing the following additions: 140 mM NaCl, 3.8 mM KCl, 1 mM EGTA, 1 mM MgCl2, 10 mM (3-mercaptoethanol, 2 mM benzamidine, 0.4 mM Pefablock, 10 μM leupeptin, 10 μM pepstatin A, 5 μM trypsin inhibitor) and disrupted by ultrasonication. The homogenate was then centrifuged for 10 min at 1000×g and the supernatant was stored at −80° C. until subsequent use (see below). The protein content was determined by the Bradford method (BioRad, Munich) using BSA as the standard.
PDE4B1 activity was inhibited by the compounds according to the present subject matter in a modified SPA (scintillation proximity assay) test, supplied by Amersham Biosciences (see procedural instructions “phosphodiesterase [3H]cAMP SPA enzyme assay, code TRKQ 7090”), carried out in 96-well microtitre plates (MTP's). The test volume is 100 μl and contains 20 mM Tris buffer (pH 7.4), 0.1 mg/ml of BSA, 5 mM Mg^2+, 0.5 μM cAMP (including about 50,000 cpm of [3H]cAMP), 1 μl of the respective substance dilution in DMSO and sufficient recombinant PDE (1000×g supernatant, see above) to ensure that 10-20% of the cAMP is converted under the said experimental conditions. […] After a preincubation of 5 min at 37° C., the reaction is started by adding the substrate (cAMP) and the assays are incubated for a further 15 min; after that, they are stopped by adding SPA beads (50 μl). In accordance with the manufacturer's instructions, the SPA beads had previously been resuspended in water, but were then diluted 1:3 (v/v) in water; the diluted solution also contains 3 mM IBMX to ensure a complete PDE activity stop. After the beads have been sedimented (>30 min), the MTP's are analyzed in commercially available luminescence detection devices. The corresponding IC50 values of the compounds for the inhibition of PDE4B1 activity are determined from the concentration-effect curves by means of non-linear regression.

Row | IC50 [nM] | SMILES
17 | 100 to 1000 | CCc1ccc(OCC2CC2)c(-c2ncnc3c(C(=O)NC4CCN(C(=O)COC)CC4)c(C)[nH]c23)c1 [Example E147, 4-[2-(Cyclopropylmethoxy)-5-ethylphenyl]-N-[1-(methoxyacetyl)piperidin-4-yl]-6-methyl-5H-pyrrolo[3,2-d]pyrimidine-7-carboxamide]
18 | 100 to 1000 | CC(=O)N[C@H]1CC[C@@H](NC(=O)c2c(C)[nH]c3c(-c4cc(F)ccc4OCC4CC4)ncnc23)CC1 [Example E45, N-(cis-4-acetamidocyclohexyl)-4-[2-(cyclopropylmethoxy)-5-fluorophenyl]-6-methyl-5H-pyrrolo[3,2-d]pyrimidine-7-carboxamide]
19 | < 100 | Cc1ccc(OCC2CC2)c(-c2ncnc3c(C(=O)N[C@H]4CC[C@@H](NC(=O)[C@H](C)O)CC4)c(C)[nH]c23)c1 [Example F56, 4-[2-(Cyclopropylmethoxy)-5-methylphenyl]-N-(cis-4-{[(2S)-2-hydroxypropanoyl]amino}cyclohexyl)-6-methyl-5H-pyrrolo[3,2-d]pyrimidine-7-carboxamide]
20 | < 100 | CCC(=O)N[C@H]1C[C@@H](F)[C@H](NC(=O)c2c(C)[nH]c3c(-c4cc(C(F)F)ccc4OCC4CC4)ncnc23)C1 (relative stereo) [Example P100, 4-[2-(Cyclopropylmethoxy)-5-(difluoromethyl)phenyl]-N-[(1R*,2R*,4R*)-2-fluoro-4-(propanoylamino)cyclopentyl]-6-methyl-5H-pyrrolo[3,2-d]pyrimidine-7-carboxamide]
21 | < 100 | CC(=O)N[C@H]1C[C@@H](F)[C@H](NC(=O)c2c(C)[nH]c3c(-c4cc(C(F)F)ccc4OCC4CC4)ncnc23)C1 (relative stereo) [Example P99, N-[(1R*,2R*,4R*)-4-(Acetylamino)-2-fluorocyclopentyl]-4-[2-(cyclopropylmethoxy)-5-(difluoromethyl)phenyl]-6-methyl-5H-pyrrolo[3,2-d]pyrimidine-7-carboxamide]
22 | < 100 | COCC(=O)N[C@H]1C[C@@H](F)[C@H](NC(=O)c2c(C)[nH]c3c(-c4cc(C(F)F)ccc4OCC4CC4)ncnc23)C1 (relative stereo) [Example P101, 4-[2-(Cyclopropylmethoxy)-5-(difluoromethyl)phenyl]-N-{(1R*,2R*,4R*)-2-fluoro-4-[(methoxyacetyl)amino]cyclopentyl}-6-methyl-5H-pyrrolo[3,2-d]pyrimidine-7-carboxamide]
